Experimental data from patent publication US10889579B2, “Thiazine derivatives as β-secretase inhibitors and methods of use” (AMGEN INC., priority 2016, dated 2021).

Tests used:
BACE1 [1] = biological target: T1, BACE1 (Homo sapiens (Human), UniProt P56817); experiment: In vitro enzymatic BACE1 FRET assay; type: biochemical; settings: pH 4.5, 1 h pre-incubation, read-out: BACE1 Enzyme IC50
Method: (§1) In Vitro Enzymatic BACE1 and BACE2 FRET (Fluorescence Resonance Energy Transfer) Assays
(§2) The cDNAs for both human recombinant BACE1 and 2 with C-terminal 6-His Tags were cloned into transient protein expression vectors, which were subsequently transfected into mammalian cell lines. These recombinant proteins were further purified using Ni-NTA affinity chromatography (Qiagen). The assay buffer used in these screens was 0.05 M acetate, pH 4.5, 8% DMSO final, 100 μM genapol (which is a nonionic detergent, below its Critical Micelle Concentration). The β-secretase enzyme (0.02 nM for BACE1 and 0.64 nM for BACE2), which was pre-incubated for one hour with the test compound, typically in about luL of DMSO according to a serial dilution, was added thereto. The assay was effectively started by the addition of FRET substrate (50 nM) and the combination was incubated for one hour. The FRET assay was terminated by the addition of tris buffer, which raised the pH to neutrality, and the fluorescence was determined. The FRET substrate was a peptide with commercially available fluorophore and quencher, on opposite sides of the BACE cleavage site. The specific FRET substrate used in this assay was made by Amgen in-house. Commercially available FRET substrates, for example, the FRET substrate offered with the BACE1 FRET Assay Kit sold by ThermoFisher Scientific (Catalog Number P2985), may be used in this assay with the appropriate modifications, which are within the purview of the ability of a person with ordinary skill in the art. Proteolytic cleavage of the FRET substrate released quenching of fluorescence (excitation 488 nm and emission 590 nm).
Target sequence in this assay (P56817 46-501): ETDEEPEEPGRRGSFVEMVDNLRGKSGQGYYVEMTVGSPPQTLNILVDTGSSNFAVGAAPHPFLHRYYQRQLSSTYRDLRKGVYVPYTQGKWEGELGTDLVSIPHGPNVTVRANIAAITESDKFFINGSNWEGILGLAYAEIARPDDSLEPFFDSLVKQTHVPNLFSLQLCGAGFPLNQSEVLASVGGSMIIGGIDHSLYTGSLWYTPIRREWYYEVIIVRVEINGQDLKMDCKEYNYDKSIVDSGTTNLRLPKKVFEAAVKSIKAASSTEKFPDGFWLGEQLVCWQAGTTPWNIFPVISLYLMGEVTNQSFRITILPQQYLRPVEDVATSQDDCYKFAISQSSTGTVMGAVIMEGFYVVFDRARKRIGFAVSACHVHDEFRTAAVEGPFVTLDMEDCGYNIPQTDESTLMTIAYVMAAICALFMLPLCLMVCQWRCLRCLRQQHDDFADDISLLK

human recombinant BACE2 = human recombinant BACE2 (Homo sapiens (Human), UniProt Q9Y5Z0); experiment: In vitro enzymatic BACE2 FRET assay; type: biochemical; settings: pH 4.5, 1 h pre-incubation, read-out: BACE2 Enzyme IC50
Method: as §1, §2

BACE1 [2] = biological target: T1, BACE1; experiment: In vitro BACE1 cell-based assay (Aβ40 in conditioned medium, HTRF); settings: Aβ40 in conditioned medium of cells stably expressing APP, 24 h
Method: In Vitro BACE1 Cell-Based Assay
The cell-based assay measures inhibition or reduction of Aβ40 in conditioned medium of test compound treated cells expressing amyloid precursor protein. Cells stably expressing Amyloid Precursor Protein (APP) were plated at a density of 45K cells/well in 384 well plates (Corning/BioCoat 354663). The test compounds were then added to cells in 22-point dose response concentrations with the starting concentration being 62.5 μM. The compounds were diluted from stock solutions in DMSO and the final DMSO concentration of the test compounds on cells was 0.625%. The cells were cultivated overnight at 37° C. and 5% CO2 in DMEM supplemented with 10% FBS. After 24 h of incubation with the test compounds, the conditioned media was collected and the Aβ40 levels were determined using HTRF (Homogeneous Time Resolved Fluorescence). The IC50 of the compound was calculated from the percent of control or percent inhibition of Aβ 40 as a function of the concentration of the test compound.
The HTRF to detect Aβ40 was performed in 384 well plates (Costar 3658). The antibody pair that were used to detect Aβ 40 from cell supernatants were ConfAb40 antibody (Amgen in-house) and biotinylated 6E10 (BIOLEGEND). As an alternative to ConfAb40, a commercially available antibody, Anti-beta Amyloid 1-40 antibody [BDI350] from Abcam, Cambridge, Mass. 02139-1517 (Product code: ab20068), may be used in this assay. The concentrations were 0.35 μg/mL of ConfAb40 antibody and 1.33 μg/mL of 6E10-biotinylated antibody, as well as 4.5 μg/mL of Streptavidin Allophycocyanin Conjugate (ThermoFisher Scientific) in HTRF Buffer (1M Hepes pH 7.5, 1M NaCL, 1% BSA, 0.5% Tween 20).
The conditioned media was incubated with above antibodies and Streptavidin Allophycocyanin Conjugate for 30-60 minutes at 23° C. The final readout was performed on Envision from PerkinElmer.
Target sequence in this assay (P56817 46-501, species assumed): as the sequence (P56817 46-501) above

Recombinant CatD = Recombinant CatD (Homo sapiens (Human), UniProt P07339); experiment: In vitro enzymatic Cathepsin D (CatD) FRET assay; type: biochemical; settings: pH 3.5, 1 h pre-incubation, read-out: Cat D Enzyme IC50
Method: In Vitro Enzymatic Cathepsin D (CatD) FRET Assay Recombinant CatD was expressed in CHO cells. The assay buffer for CatD was 0.05 M citrate pH 3.5, 10% DMSO final, 5 mM CHAPS. The CatD enzyme (9 nM) was pre-incubated for one hour with inhibitors, typically in about luL of DMSO according to a serial dilution, is added thereto. The assays was effectively started by the addition of different FRET substrates (20 nM for CatD) and the combination was incubated for one hour. The FRET assay was terminated with by addition of tris buffer, which raises the pH to neutrality, and the fluorescence was determined. The FRET substrate was a peptide with commercially available fluorophore and quencher, on opposite sides of the CatD cleavage site. The CatD substrate peptide sequence was based on sequence #1 of Table 1 from Gulnik et al., FEBS Lett. 413(2):379-384 (1997). Proteolytic cleavage of the FRET substrate released quenching of fluorescence (CatD excitation 500 nm and emission 580 nm). The in vitro CatD FRET assay data for each of the Examples is provided in Table 2, conducted by the first procedure described above. […] Thus, with this surprising selectivity profile, the compounds provided herein are believed to minimize, reduce or completely eliminate any risk of retinal atrophy and abnormal development of the eye and of the retinal pigmented epithelium as it relates to the normal function and activity of CatD.

human recombinant BACE2, sequence (Q9Y5Z0 63-518): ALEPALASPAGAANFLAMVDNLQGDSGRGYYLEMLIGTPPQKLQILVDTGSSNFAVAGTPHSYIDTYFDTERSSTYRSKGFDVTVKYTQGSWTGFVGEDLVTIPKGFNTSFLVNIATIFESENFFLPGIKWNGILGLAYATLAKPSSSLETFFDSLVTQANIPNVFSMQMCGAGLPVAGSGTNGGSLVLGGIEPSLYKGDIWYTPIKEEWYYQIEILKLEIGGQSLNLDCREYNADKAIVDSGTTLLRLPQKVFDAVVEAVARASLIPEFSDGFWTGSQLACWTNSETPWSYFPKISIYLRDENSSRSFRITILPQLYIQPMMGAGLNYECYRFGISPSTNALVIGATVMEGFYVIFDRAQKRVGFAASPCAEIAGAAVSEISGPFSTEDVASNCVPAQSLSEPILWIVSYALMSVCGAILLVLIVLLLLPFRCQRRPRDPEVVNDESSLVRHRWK
Recombinant CatD, sequence (P07339 65-412): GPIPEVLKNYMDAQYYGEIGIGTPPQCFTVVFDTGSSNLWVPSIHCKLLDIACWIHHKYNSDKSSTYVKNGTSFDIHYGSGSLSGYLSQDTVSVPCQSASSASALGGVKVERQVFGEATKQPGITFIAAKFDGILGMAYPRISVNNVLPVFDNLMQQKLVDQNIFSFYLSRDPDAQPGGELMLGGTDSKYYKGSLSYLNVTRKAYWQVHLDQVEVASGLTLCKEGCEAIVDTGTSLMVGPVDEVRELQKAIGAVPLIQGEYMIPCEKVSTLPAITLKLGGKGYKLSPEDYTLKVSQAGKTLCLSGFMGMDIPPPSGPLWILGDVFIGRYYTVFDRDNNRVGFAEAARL

| IC50 (BACE1 [1]) | IC50 (human recombinant BACE2) | IC50 (BACE1 [2]) | IC50 (Recombinant CatD) | Structure (SMILES) |
| --- | --- | --- | --- | --- |
| 98 nM | 601 nM | 49 nM | 52000 nM | C[C@@]1(c2cc(/C=C(\F)c3ccc(C#N)cn3)ccc2F)C=CSC(N)=N1 [Example 101, (S,Z)-6-(2-(3-(2-amino-4-methyl-4H-1,3-thiazin-4-yl)-4-fluorophenyl)-1-fluorovinyl)nicotinonitrile] |
| 74 nM | 482 nM | 15 nM | 186000 nM | C[C@@]1(c2cc(/C=C(\F)c3ccc(C#N)cn3)ccc2F)CCSC(N)=N1 [Example 103, (S,Z)-6-(2-(3-(2-amino-4-methyl-5,6-dihydro-4H-1,3-thiazin-4-yl)-4-fluorophenyl)-1-fluorovinyl)nicotinonitrile] |
| 54 nM | 75 nM | 215 nM | 91000 nM | COC(=O)[C@]1(C)C[C@@](C)(c2cc(/C=C(\F)c3ccc(Cl)cn3)ccc2F)N=C(N)S1 [Example 106, (4S,6S)-methyl 2-amino-4-(5-((Z)-2-(5-chloropyridin-2-yl)-2-fluorovinyl)-2-fluorophenyl)-4,6-dimethyl-5,6-dihydro-4H-1,3-thiazine-6-carboxylate] |
| 68 nM | 90 nM | 522 nM | 282000 nM | COC(=O)[C@@]1(C)C[C@@](C)(c2cc(/C=C(\F)c3ccc(Cl)cn3)ccc2F)N=C(N)S1 [Example 107, (4S,6R)-methyl 2-amino-4-(5-((Z)-2-(5-chloropyridin-2-yl)-2-fluorovinyl)-2-fluorophenyl)-4,6-dimethyl-5,6-dihydro-4H-1,3-thiazine-6-carboxylate] |
| 16 nM | 231 nM | 44 nM | 386000 nM | COC(=O)[C@@]1(C)C[C@@](C)(c2cc(/C=C(\F)c3ccc(C#N)cn3)ccc2F)N=C(N)S1 [Example 108, (4S,6R)-methyl 2-amino-4-(5-((Z)-2-(5-cyanopyridin-2-yl)-2-fluorovinyl)-2-fluorophenyl)-4,6-dimethyl-5,6-dihydro-4H-1,3-thiazine-6-carboxylate] |
| 16 nM | 281 nM | 24 nM | 95600 nM | COC(=O)[C@]1(C)C[C@@](C)(c2cc(/C=C(\F)c3ccc(C#N)cn3)ccc2F)N=C(N)S1 [Example 109, (4S,6S)-methyl 2-amino-4-(5-((Z)-2-(5-cyanopyridin-2-yl)-2-fluorovinyl)-2-fluorophenyl)-4,6-dimethyl-5,6-dihydro-4H-1,3-thiazine-6-carboxylate] |
| 4 nM | 130 nM | 2 nM | 250000 nM | C[C@@]1(C(=O)N2CCOCC2)C[C@@](C)(c2cc(/C=C(\F)c3ccc(C#N)cn3)ccc2F)N=C(N)S1 [Example 110, 6-((Z)-2-(3-((4S,6S)-2-amino-4,6-dimethyl-6-(morpholine-4-carbonyl)-5,6-dihydro-4H-1,3-thiazin-4-yl)-4-fluorophenyl)-1-fluorovinyl)nicotinonitrile] |
| 98 nM | 1470 nM | 201 nM | 300000 nM | C[C@]1(C(=O)N2CCOCC2)C[C@@](C)(c2cc(/C=C(\F)c3ccc(C#N)cn3)ccc2F)N=C(N)S1 [Example 111, 6-((Z)-2-(3-((4S,6R)-2-amino-4,6-dimethyl-6-(morpholine-4-carbonyl)-5,6-dihydro-4H-1,3-thiazin-4-yl)-4-fluorophenyl)-1-fluorovinyl)nicotinonitrile] |
| 6 nM | 358 nM | 2 nM | 21800 nM | C#CCOc1cnc(/C(F)=C/c2ccc(F)c([C@]3(C)C[C@@](C)(C(=O)N4CCOCC4)SC(N)=N3)c2)cn1 [Example 114, ((4S,6S)-2-amino-4-(2-fluoro-5-((Z)-2-fluoro-2-(5-(prop-2-yn-1-yloxy)pyrazin-2-yl)vinyl)phenyl)-4,6-dimethyl-5,6-dihydro-4H-1,3-thiazin-6-yl)(morpholino)methanone] |
| 24 nM | 760 nM | 18 nM | 40200 nM | C#CCOc1cnc(/C(F)=C/c2ccc(F)c([C@]3(C)C[C@@](C)(C(=O)NCC(F)F)SC(N)=N3)c2)cn1 [Example 115, (4S,6S)-2-amino-N-(2,2-difluoroethyl)-4-(2-fluoro-5-((Z)-2-fluoro-2-(5-(prop-2-yn-1-yloxy)pyrazin-2-yl)vinyl)phenyl)-4,6-dimethyl-5,6-dihydro-4H-1,3-thiazine-6-carboxamide] |

| Structure (SMILES) | IC50 (BACE1 [1]) | IC50 (human recombinant BACE2) | IC50 (BACE1 [2]) | IC50 (Recombinant CatD) |
| --- | --- | --- | --- | --- |
| COC(=O)[C@H]1C[C@@](C)(c2cc(/C=C(\F)c3ccc(Cl)cn3)ccc2F)N=C(N)S1 (single isomer, unassigned) [Example 104] | 212 nM | 185 nM | 468 nM | 133000 nM |
| COC(=O)[C@@H]1C[C@@](C)(c2cc(/C=C(\F)c3ccc(Cl)cn3)ccc2F)N=C(N)S1 (single isomer, unassigned) [Example 105] | 45 nM | 49 nM | 377 nM | 73700 nM |
| C[C@@]1(c2cc(/C=C(\F)c3ccc(Cl)cn3)ccc2F)C=CSC(N)=N1 [Example 100, (S,Z)-4-(5-(2-(5-chloropyridin-2-yl)-2-fluorovinyl)-2-fluorophenyl)-4-methyl-4H-1,3-thiazin-2-amine] | 220 nM | 191 nM | 357 nM | 36900 nM |
| C[C@@]1(c2cc(/C=C(\F)c3ccc(Cl)cn3)ccc2F)CCSC(N)=N1 [Example 102, (S,Z)-4-(5-(2-(5-chloropyridin-2-yl)-2-fluorovinyl)-2-fluorophenyl)-4-methyl-5,6-dihydro-4H-1,3-thiazin-2-amine] | 124 nM | 64 nM | 148 nM | 211000 nM |
| C#CCOc1cnc(/C(F)=C/c2ccc(F)c([C@]3(C)C[C@](C)(C(=O)NC)SC(N)=N3)c2)cn1 [Example 112, (4S,6R)-2-amino-4-(2-fluoro-5-((Z)-2-fluoro-2-(5-(2-propyn-1-yloxy)-2-pyrazinyl)ethenyl)phenyl)-N,4,6-trimethyl-5,6-dihydro-4H-1,3-thiazine-6-carboxamide] | 37 nM | 1300 nM | 11 nM | 79900 nM |
| C#CCOc1cnc(/C(F)=C/c2ccc(F)c([C@]3(C)C[C@@](C)(C(=O)NC)SC(N)=N3)c2)cn1 [Example 113, (4S,6S)-2-amino-4-(2-fluoro-5-((Z)-2-fluoro-2-(5-(2-propyn-1-yloxy)-2-pyrazinyl)ethenyl)phenyl)-N,4,6-trimethyl-5,6-dihydro-4H-1,3-thiazine-6-carboxamide] | 22 nM | 835 nM | 10 nM | 178000 nM |
